{"source": "patent US20070104803A1", "about": "“Chinese herbal composition for treating diseases” (Kaohsiung Medical University, priority 2005, published 2007)", "assay_type_in_all_cases": "in vivo, rat", "key": {"Wistar rats [1]": {"tested_on": "Wistar rats", "experiment": "Acute survival study after LPS", "method": "(§1) The animal experiment is approved by the Animal Care and Use Committee at the Kaohsiung Medical University. The male Wistar rats, weighing 250-350 g, are provided by the National Laboratory Animal Breeding and Research Center (Taipei, Taiwan). The rats are housed under conditions of constant temperature and controlled illumination (light regime of 12 h light and 12 h darkness). The rats are allowed food and water ad libitum. They are anesthetized with an intraperitoneal (i.p.) injection of pentobarbital sodium (50 mg/kg). Following tracheal cannulation, systemic arterial blood pressure and heart rate are recorded from the femoral artery with a pressure transducer (Spectramed, Model P10EZ, USA). Body temperature is maintained at 37° C. by an electric heating pad. A femoral vein is cannulated for the administration of LPS (E. coli serotype 026:B6), HBCM, baicalin, or dexamethasone (DEXA), respectively. The rats are injected intravenously with either saline (0.1 ml/kg) or LPS (10 mg/kg) for control and experimental purposes, respectively. All the animals are assigned to one of the following groups: saline only, LPS/saline, LPS/HBCM (75 mg/kg), LPS/baicalin (1.5 mg/kg), and LPS/DEXA (0.5 mg/kg) groups. LPS is injected at a dose of 10 mg/kg, after 10 min, HBCM, baicalin and DEXA are given, respectively.\nA single injection of LPS (10 mg/kg, i.v.) leads to a biphasic arterial hypotension: an initial and transient decrease in arterial mean blood pressure (about 10 min), followed by a delayed and prolonged hypotension. The HBCM (75 mg/kg, i.v.), baicalin (1.5 mg/kg, i.v.) and DEXA (0.5 mg/kg, i.v.) are administrated 10 min after LPS administration. The used dose of baicalin is according to the content of baicalin in HBCM by the HPLC method. Separate groups are used for acute survival study (n=10 each), lung tissue sampling (n=10 each), and blood sampling (n=10 each). […]\nThe animals without pulmonary are monitored per 30 minutes for 7 hours after LPS administration. The blood pressure (BP) changes were recorded within 5 hours after LPS injection. […]"}, "Wistar rats [2]": {"tested_on": "Wistar rats", "experiment": "Attenuation of LPS-induced arterial hypotension (post-treatment)", "conditions": "HBCM 75 mg/kg, baicalin 1.5 mg/kg, DEXA 0.5 mg/kg i.v. 10 min after LPS 10 mg/kg i.v.; FIG. 3", "method": "as §1, with “given, respectively. […]” for “given, respectively.”"}, "TNF-α": {"tested_on": "TNF-α", "experiment": "LPS-induced plasma TNF-α immunoreactivity (post-treatment, ELISA)", "conditions": "LPS 10 mg/kg i.v.; HBCM 75, baicalin 1.5, DEXA 0.5 mg/kg 10 min after LPS; FIG. 9", "method": "as §1, with “given, respectively. […]” for “given, respectively.”"}, "iNOS": {"tested_on": "iNOS", "experiment": "LPS-induced iNOS in lung tissues (western blot)", "conditions": "5 h after LPS 10 mg/kg; HBCM 75, baicalin 1.5, DEXA 0.5 mg/kg post-treatment; FIG. 8", "method": "as §1, with “All the animals are assigned to one of the following groups: saline only, LPS/saline, LPS/HBCM (75 mg/kg), LPS/baicalin (1.5 mg/kg), and LPS/DEXA (0.5 mg/kg) groups. LPS is injected at a dose of 10 mg/kg, after 10 min, HBCM, baicalin and DEXA are given, respectively.” left out\n(§2) The HBCM, baicalin and DEXA are post-treated 10 minutes after the administration of LPS. […] The expression of each protein is detected by enhanced chemiluminescence using Hyperfilm and ECL reagent (Amersham, UK)."}, "Wistar rats [3]": {"tested_on": "Wistar rats", "experiment": "LPS-induced lung edema (wet/dry weight ratio)", "conditions": "5 hours after LPS; HBCM, baicalin, DEXA given 10 min after LPS; FIG. 7", "method": "as §1, with “The rats are injected intravenously with either saline (0.1 ml/kg) or LPS (10 mg/kg) for control and experimental purposes, respectively. All the animals are assigned to one of the following groups: saline only, LPS/saline, LPS/HBCM (75 mg/kg), LPS/baicalin (1.5 mg/kg), and LPS/DEXA (0.5 mg/kg) groups. LPS is injected at a dose of 10 mg/kg, after 10 min, HBCM, baicalin and DEXA are given, respectively.” left out\nThe water content of the lungs is determined by calculating the wet/dry weight ratio of lung tissues at 5 hours after LPS administration. […] The dry weight is determined after the lung is dried at 80° C. for 72 hours, and the edema index (wet/dry weight ratio) is calculated by dividing the wet weight by the dry weight. The edema index indicates the water content of the lung, which is determined by calculating the wet/dry weight ratio of lung tissues at 5 hours after LPS administration."}, "ICAM-1": {"tested_on": "ICAM-1", "experiment": "LPS-induced ICAM-1 in lung tissues (western blot)", "conditions": "5 h after LPS 10 mg/kg; HBCM 75, baicalin 1.5, DEXA 0.5 mg/kg post-treatment; FIG. 8", "method": "as §1, with “All the animals are assigned to one of the following groups: saline only, LPS/saline, LPS/HBCM (75 mg/kg), LPS/baicalin (1.5 mg/kg), and LPS/DEXA (0.5 mg/kg) groups. LPS is injected at a dose of 10 mg/kg, after 10 min, HBCM, baicalin and DEXA are given, respectively.” left out\nas §2"}, "TGF-β": {"tested_on": "TGF-β", "experiment": "LPS-induced TGF-β in lung tissues (western blot)", "conditions": "5 h after LPS 10 mg/kg; HBCM 75, baicalin 1.5, DEXA 0.5 mg/kg post-treatment; FIG. 8", "method": "as §1, with “All the animals are assigned to one of the following groups: saline only, LPS/saline, LPS/HBCM (75 mg/kg), LPS/baicalin (1.5 mg/kg), and LPS/DEXA (0.5 mg/kg) groups. LPS is injected at a dose of 10 mg/kg, after 10 min, HBCM, baicalin and DEXA are given, respectively.” left out\nas §2"}, "MCP-1": {"tested_on": "MCP-1", "experiment": "LPS-induced plasma MCP-1 immunoreactivity (post-treatment, ELISA)", "conditions": "LPS 10 mg/kg i.v.; post-treatment 10 min after LPS; up to 5 hours; FIG. 9", "method": "as §1, with “given, respectively. […]” for “given, respectively.”"}, "[4]": {"tested_on": "phosphorylated p38 MAP kinase", "experiment": "LPS-induced phosphorylated p38 MAP kinase in lung tissues (western blot)", "conditions": "5 h after LPS 10 mg/kg; HBCM 75, baicalin 1.5, DEXA 0.5 mg/kg post-treatment; FIG. 8", "method": "as §1, with “All the animals are assigned to one of the following groups: saline only, LPS/saline, LPS/HBCM (75 mg/kg), LPS/baicalin (1.5 mg/kg), and LPS/DEXA (0.5 mg/kg) groups. LPS is injected at a dose of 10 mg/kg, after 10 min, HBCM, baicalin and DEXA are given, respectively.” left out\nas §2"}, "IL-1β": {"tested_on": "IL-1β", "experiment": "LPS-induced plasma IL-1β immunoreactivity (post-treatment, ELISA)", "conditions": "LPS 10 mg/kg i.v.; post-treatment 10 min after LPS; up to 5 hours; FIG. 9", "method": "as §1, with “given, respectively. […]” for “given, respectively.”"}}}
{"smiles": "C[C@@H]1C[C@H]2[C@@H]3CCC4=CC(=O)C=C[C@]4(C)[C@@]3(F)[C@@H](O)C[C@]2(C)[C@@]1(O)C(=O)CO", "note": "[DEXA, dexamethasone]", "values": [{"measurement": "time all the rats survive", "setting": "Wistar rats [1]; LPS 10 mg/kg, DEXA 0.5 mg/kg i.v. 10 min after LPS, n=10", "result": "more than 7 hours"}]}
{"smiles": "O=C(O)[C@H]1O[C@@H](Oc2cc3oc(-c4ccccc4)cc(=O)c3c(O)c2O)[C@H](O)[C@@H](O)[C@@H]1O", "note": "[baicalin]", "values": [{"measurement": "LPS-induced prolonged arterial hypotension", "setting": "Wistar rats [2]", "result": "significantly attenuates"}, {"measurement": "elevation of plasma TNF-α vs LPS/saline group", "setting": "TNF-α", "result": "significantly lower"}, {"measurement": "LPS-induced iNOS expression in lung tissues", "setting": "iNOS", "result": "significant inhibition"}, {"measurement": "LPS-induced lung edema (wet/dry weight ratio)", "setting": "Wistar rats [3]", "result": "significantly attenuates"}, {"measurement": "LPS-induced ICAM-1 expression in lung tissues", "setting": "ICAM-1", "result": "significant inhibition"}, {"measurement": "survival for 7 hours", "setting": "Wistar rats [1]; LPS 10 mg/kg, HBCM 75 mg/kg or baicalin 1.5 mg/kg i.v. 10 min after LPS, n=10", "result": 90, "unit": "%"}, {"measurement": "survival rate compared with LPS/saline group", "setting": "Wistar rats [1]; post-treatment 10 min after LPS 10 mg/kg, FIG. 6", "result": "significantly better survival rate"}, {"measurement": "LPS-induced TGF-β expression in lung tissues", "setting": "TGF-β", "result": "significant inhibition"}, {"measurement": "elevation of plasma MCP-1 vs LPS/saline group", "setting": "MCP-1", "result": "lower"}, {"measurement": "LPS-induced phosphorylated p38 MAP kinase expression in lung tissues", "setting": "[4]", "result": "significant inhibition"}, {"measurement": "elevation of plasma IL-1β vs LPS/saline group", "setting": "IL-1β", "result": "lower"}]}
